For this test, the system named is Fisher 344×Brown Norway (FBN) rat. The experiment in a line: Treatment of sarcopenia (age-related muscle loss) in FBN hybrid rats. Format: in vivo. The following applies: middle age and/or old FBN hybrid rats; OP administered e.g. orally. On the procedure:
The Fisher 344×Brown Norway (FBN) rat model has been recommended by the National Institute on Aging (NIA) for age-related research. […] Significant muscle mass loss, a reduction in muscle CSA, and muscle fiber loss are expected in, for example, the quadriceps muscles of the aged rat.
OP is administered, for example orally, to young, middle age, and old FBN hybrid rats.

Regarding L-ornithine phenylacetate [OP], the muscle mass loss result was “effective in reducing muscle mass loss”.
